Source: publication PMC13210772, “Dual FLT3/MAPK14 Proteolysis-Targeting Chimera (PROTAC) Induces Potent Acute Myeloid Leukemia Cell Death” (Pharmaceuticals, 2026)

Columns and labels:
Test in all cases: NanoBRET CELLinib128
Format in all cases: binding
MAP3K9 = target: T1, MAP3K9 (Homo sapiens, UniProt P80192); details: 100% no effect, 0% complete tracer displacement, read-out: Tracer bound
T1 construct: Full-length kinase ORF (Promega, Madison, WI, USA) cloned in frame with a NanoLuc-vector was transfected into HEK293T cells; host or cells: HEK293T
Method: (§1) To get an impression about the binding strength of the PROTAC MA191 and the reference inhibitor MA68 to other kinases besides FLT3-ITD the binding on a kinase panel of further 128 representative protein kinases at 1 μM concentration was tested using the NanoBRET^TM cellular target engagement assay (CELLinib128 assay, CELLinib GmbH, Frankfurt, Germany). […] In none of the 128 kinases MA191 was able to displace the tracer (inhibitor) used by more than 50%, Table S1, Supplementary Information).
(§2) The CELLinib128 assay was performed by CELLinib GmbH, Frankfurt (Germany) as described previously. In brief: Full-length kinase ORF (Promega, Madison, WI, USA) cloned in frame with a NanoLuc-vector was transfected into HEK293T cells in Opti-MEM without phenol red (Life Technologies, Carlsbad, CA, USA) at a density of 2 × 10^5 cells/mL using FuGENE HD (Promega, E2312) and proteins were allowed to express for 20 h. For CDKs, where indicated below, an excess of an activator without an NLuc-fusion was cotransfected. […] The system was allowed to equilibrate at 37 °C for 2 h and 5% CO2 prior to BRET measurements. For PKCs, a chemical activator PMA was added in a final concentration of 1 µM was added together with test compounds and tracers (Promega, V1171). To measure BRET, NanoBRET^TM NanoGlo substrate + extracellular NanoLuc inhibitor (Promega, N2160) were added as per the manufacturer’s protocol, and filtered luminescence was measured (450 nm BP filter (donor) and 610 nm LP filter (acceptor)). For the 1-shot test compounds, data were normalized to the tracer control and the background control or control compound plateau and an average and SD were calculated. […] For the control compounds competitive displacement data were normalized to the tracer Ctrl and the background Ctrl and then plotted and fitted using GraphPad Prism 10 software using a normalized 3-parameter curve fit with the following equation: Y = 100/(1 + 10^X−LogIC50).

BRSK1 = target: T2, BRSK1 (Homo sapiens, UniProt Q8TDC3); details: 100% no effect, 0% complete tracer displacement, read-out: Tracer bound
T2 construct: Full-length kinase ORF (Promega, Madison, WI, USA) cloned in frame with a NanoLuc-vector was transfected into HEK293T cells; host or cells: HEK293T
Method: as §1, §2

JAK3 = target: T3, JAK3 (Homo sapiens, UniProt P52333); details: 100% no effect, 0% complete tracer displacement, read-out: Tracer bound
T3 construct: Full-length kinase ORF (Promega, Madison, WI, USA) cloned in frame with a NanoLuc-vector was transfected into HEK293T cells; host or cells: HEK293T
Method: as §1, §2

PHKG1 = target: T4, PHKG1 (Homo sapiens, UniProt Q16816); details: 100% no effect, 0% complete tracer displacement, read-out: Tracer bound
T4 construct: Full-length kinase ORF (Promega, Madison, WI, USA) cloned in frame with a NanoLuc-vector was transfected into HEK293T cells; host or cells: HEK293T
Method: as §1, §2

MAP4K1 = target: T5, MAP4K1 (Homo sapiens, UniProt Q92918); details: 100% no effect, 0% complete tracer displacement, read-out: Tracer bound
T5 construct: Full-length kinase ORF (Promega, Madison, WI, USA) cloned in frame with a NanoLuc-vector was transfected into HEK293T cells; host or cells: HEK293T
Method: as §1, §2

STK33 = target: T6, STK33 (Homo sapiens, UniProt Q9BYT3); details: 100% no effect, 0% complete tracer displacement, read-out: Tracer bound
T6 construct: Full-length kinase ORF (Promega, Madison, WI, USA) cloned in frame with a NanoLuc-vector was transfected into HEK293T cells; host or cells: HEK293T
Method: as §1, §2

CSNK1G2 = target: T7, CSNK1G2 (Homo sapiens, UniProt P78368); details: 1 µM; 100% no effect, 0% complete tracer displacement
T7 construct: Full-length kinase ORF (Promega, Madison, WI, USA) cloned in frame with a NanoLuc-vector was transfected into HEK293T cells; host or cells: HEK293T
Method: as §1, §2

CDK2-CCNE1 = target: T8, CDK2-CCNE1 (Homo sapiens, UniProt P24941); details: 1 µM; 100% no effect, 0% complete tracer displacement
T8 construct: Full-length kinase ORF (Promega, Madison, WI, USA) cloned in frame with a NanoLuc-vector was transfected into HEK293T cells; host or cells: HEK293T
Method: as §1, §2

TRKA = target: T9, TRKA (Homo sapiens, UniProt P04629); details: 100% no effect, 0% complete tracer displacement, read-out: Tracer bound
T9 construct: Full-length kinase ORF (Promega, Madison, WI, USA) cloned in frame with a NanoLuc-vector; host or cells: HEK293T
Method: as §1, §2

STK35 = target: T10, STK35 (Homo sapiens, UniProt Q8TDR2); details: 100% no effect, 0% complete tracer displacement, read-out: Tracer bound
T10 construct: Full-length kinase ORF (Promega, Madison, WI, USA) cloned in frame with a NanoLuc-vector was transfected into HEK293T cells; host or cells: HEK293T
Method: as §1, §2

PAK4 = target: T11, PAK4 (Homo sapiens, UniProt O96013); details: 100% no effect, 0% complete tracer displacement, read-out: Tracer bound
T11 construct: Full-length kinase ORF (Promega, Madison, WI, USA) cloned in frame with a NanoLuc-vector was transfected into HEK293T cells; host or cells: HEK293T
Method: as §1, §2

JAK2 = target: T12, JAK2 (Homo sapiens, UniProt O60674); details: 1 µM; 100% no effect, 0% complete tracer displacement
T12 construct: Full-length kinase ORF (Promega, Madison, WI, USA) cloned in frame with a NanoLuc-vector was transfected into HEK293T cells; host or cells: HEK293T
Method: as §1, §2

TYK2 = target: T13, TYK2 (Homo sapiens, UniProt P29597); details: 1 µM; 100% no effect, 0% complete tracer displacement
T13 construct: Full-length kinase ORF (Promega, Madison, WI, USA) cloned in frame with a NanoLuc-vector; host or cells: HEK293T
Method: as §1, §2

FGFR1 = target: T14, FGFR1 (Homo sapiens, UniProt P11362); details: 100% no effect, 0% complete tracer displacement, read-out: Tracer bound
T14 construct: Full-length kinase ORF (Promega, Madison, WI, USA) cloned in frame with a NanoLuc-vector was transfected into HEK293T cells; host or cells: HEK293T
Method: as §1, §2

ERN2 = target: T15, ERN2 (Homo sapiens, UniProt Q76MJ5); details: 100% no effect, 0% complete tracer displacement, read-out: Tracer bound
T15 construct: Full-length kinase ORF (Promega, Madison, WI, USA) cloned in frame with a NanoLuc-vector was transfected into HEK293T cells; host or cells: HEK293T
Method: as §1, §2

SNRK = target: T16, SNRK (Homo sapiens, UniProt Q9NRH2); details: 100% no effect, 0% complete tracer displacement, read-out: Tracer bound
T16 construct: Full-length kinase ORF (Promega, Madison, WI, USA) cloned in frame with a NanoLuc-vector was transfected into HEK293T cells; host or cells: HEK293T
Method: as §1, §2

EPHA6 = target: T17, EPHA6 (Homo sapiens, UniProt Q9UF33); details: 100% no effect, 0% complete tracer displacement, read-out: Tracer bound
T17 construct: Full-length kinase ORF (Promega, Madison, WI, USA) cloned in frame with a NanoLuc-vector was transfected into HEK293T cells; host or cells: HEK293T
Method: as §1, §2

LATS1 = target: T18, LATS1 (Homo sapiens, UniProt O95835); details: 100% no effect, 0% complete tracer displacement, read-out: Tracer bound
T18 construct: Full-length kinase ORF (Promega, Madison, WI, USA) cloned in frame with a NanoLuc-vector was transfected into HEK293T cells; host or cells: HEK293T
Method: as §1, §2

RET = target: T19, RET (Homo sapiens, UniProt P07949); details: 100% no effect, 0% complete tracer displacement, read-out: Tracer bound
T19 construct: Full-length kinase ORF (Promega, Madison, WI, USA) cloned in frame with a NanoLuc-vector was transfected into HEK293T cells; host or cells: HEK293T
Method: as §1, §2

TNK1 = target: T20, TNK1 (Homo sapiens, UniProt Q13470); details: 100% no effect, 0% complete tracer displacement, read-out: Tracer bound
T20 construct: Full-length kinase ORF (Promega, Madison, WI, USA) cloned in frame with a NanoLuc-vector; host or cells: HEK293T
Method: as §1, §2

HUNK = target: T21, HUNK (Homo sapiens, UniProt P57058); details: 100% no effect, 0% complete tracer displacement, read-out: Tracer bound
T21 construct: Full-length kinase ORF (Promega, Madison, WI, USA) cloned in frame with a NanoLuc-vector was transfected into HEK293T cells; host or cells: HEK293T
Method: as §1, §2

STK36 = target: T22, STK36 (Homo sapiens, UniProt Q9NRP7); details: 100% no effect, 0% complete tracer displacement, read-out: Tracer bound
T22 construct: Full-length kinase ORF (Promega, Madison, WI, USA) cloned in frame with a NanoLuc-vector was transfected into HEK293T cells; host or cells: HEK293T
Method: as §1, §2

MAPK9 = target: T23, MAPK9 (Homo sapiens, UniProt P45984); details: 1 µM; 100% no effect, 0% complete tracer displacement
T23 construct: Full-length kinase ORF (Promega, Madison, WI, USA) cloned in frame with a NanoLuc-vector was transfected into HEK293T cells; host or cells: HEK293T
Method: as §1, §2

SIK1 = target: T24, SIK1 (Homo sapiens, UniProt P57059); details: 1 µM; 100% no effect, 0% complete tracer displacement
T24 construct: Full-length kinase ORF (Promega, Madison, WI, USA) cloned in frame with a NanoLuc-vector was transfected into HEK293T cells; host or cells: HEK293T
Method: as §1, §2

PRKCE-PMA = target: T25, PRKCE-PMA (Homo sapiens, UniProt Q02156); details: 100% no effect, 0% complete tracer displacement, read-out: Tracer bound
T25 construct: Full-length kinase ORF (Promega, Madison, WI, USA) cloned in frame with a NanoLuc-vector was transfected into HEK293T cells; host or cells: HEK293T
Method: as §1, §2

ULK2 = target: T26, ULK2 (Homo sapiens, UniProt Q8IYT8); details: 100% no effect, 0% complete tracer displacement, read-out: Tracer bound
T26 construct: Full-length kinase ORF (Promega, Madison, WI, USA) cloned in frame with a NanoLuc-vector; host or cells: HEK293T
Method: as §1, §2

AURKC = target: T27, AURKC (Homo sapiens, UniProt Q9UQB9); details: 100% no effect, 0% complete tracer displacement, read-out: Tracer bound
T27 construct: Full-length kinase ORF (Promega, Madison, WI, USA) cloned in frame with a NanoLuc-vector was transfected into HEK293T cells; host or cells: HEK293T
Method: as §1, §2

SIK3 = target: T28, SIK3 (Homo sapiens, UniProt Q9Y2K2); details: 1 µM; 100% no effect, 0% complete tracer displacement
T28 construct: Full-length kinase ORF (Promega, Madison, WI, USA) cloned in frame with a NanoLuc-vector was transfected into HEK293T cells; host or cells: HEK293T
Method: as §1, §2

RPS6KA3 = target: T29, RPS6KA3 (Homo sapiens, UniProt P51812); details: 100% no effect, 0% complete tracer displacement, read-out: Tracer bound
T29 construct: Full-length kinase ORF (Promega, Madison, WI, USA) cloned in frame with a NanoLuc-vector was transfected into HEK293T cells; host or cells: HEK293T
Method: as §1, §2

MYLK3 = target: T30, MYLK3 (Homo sapiens, UniProt Q32MK0); details: 100% no effect, 0% complete tracer displacement, read-out: Tracer bound
T30 construct: Full-length kinase ORF (Promega, Madison, WI, USA) cloned in frame with a NanoLuc-vector was transfected into HEK293T cells; host or cells: HEK293T
Method: as §1, §2

T15 sequence (Q76MJ5 35-926): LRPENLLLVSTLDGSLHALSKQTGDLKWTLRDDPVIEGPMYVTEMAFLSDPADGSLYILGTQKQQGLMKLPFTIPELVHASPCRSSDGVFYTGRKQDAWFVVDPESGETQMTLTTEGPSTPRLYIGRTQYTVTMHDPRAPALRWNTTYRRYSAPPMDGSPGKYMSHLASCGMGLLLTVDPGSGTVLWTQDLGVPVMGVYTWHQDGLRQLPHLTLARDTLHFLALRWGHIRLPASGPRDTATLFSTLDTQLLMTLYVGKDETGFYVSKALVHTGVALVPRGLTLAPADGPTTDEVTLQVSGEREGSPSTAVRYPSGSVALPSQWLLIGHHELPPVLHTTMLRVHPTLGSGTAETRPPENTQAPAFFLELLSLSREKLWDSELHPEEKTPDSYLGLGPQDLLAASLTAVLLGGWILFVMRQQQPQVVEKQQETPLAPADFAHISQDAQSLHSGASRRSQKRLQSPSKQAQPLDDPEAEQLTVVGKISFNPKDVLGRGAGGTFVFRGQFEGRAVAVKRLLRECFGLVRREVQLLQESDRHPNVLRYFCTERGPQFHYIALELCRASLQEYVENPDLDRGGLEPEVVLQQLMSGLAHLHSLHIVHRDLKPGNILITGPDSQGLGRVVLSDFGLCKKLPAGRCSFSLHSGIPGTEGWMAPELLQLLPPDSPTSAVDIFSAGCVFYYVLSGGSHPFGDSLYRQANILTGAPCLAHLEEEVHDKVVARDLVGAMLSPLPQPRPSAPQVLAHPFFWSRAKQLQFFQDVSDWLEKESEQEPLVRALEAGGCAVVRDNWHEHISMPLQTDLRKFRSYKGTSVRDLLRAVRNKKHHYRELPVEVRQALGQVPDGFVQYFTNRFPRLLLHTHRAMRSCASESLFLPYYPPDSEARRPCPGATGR
T28 sequence (Q9Y2K2 whole entry): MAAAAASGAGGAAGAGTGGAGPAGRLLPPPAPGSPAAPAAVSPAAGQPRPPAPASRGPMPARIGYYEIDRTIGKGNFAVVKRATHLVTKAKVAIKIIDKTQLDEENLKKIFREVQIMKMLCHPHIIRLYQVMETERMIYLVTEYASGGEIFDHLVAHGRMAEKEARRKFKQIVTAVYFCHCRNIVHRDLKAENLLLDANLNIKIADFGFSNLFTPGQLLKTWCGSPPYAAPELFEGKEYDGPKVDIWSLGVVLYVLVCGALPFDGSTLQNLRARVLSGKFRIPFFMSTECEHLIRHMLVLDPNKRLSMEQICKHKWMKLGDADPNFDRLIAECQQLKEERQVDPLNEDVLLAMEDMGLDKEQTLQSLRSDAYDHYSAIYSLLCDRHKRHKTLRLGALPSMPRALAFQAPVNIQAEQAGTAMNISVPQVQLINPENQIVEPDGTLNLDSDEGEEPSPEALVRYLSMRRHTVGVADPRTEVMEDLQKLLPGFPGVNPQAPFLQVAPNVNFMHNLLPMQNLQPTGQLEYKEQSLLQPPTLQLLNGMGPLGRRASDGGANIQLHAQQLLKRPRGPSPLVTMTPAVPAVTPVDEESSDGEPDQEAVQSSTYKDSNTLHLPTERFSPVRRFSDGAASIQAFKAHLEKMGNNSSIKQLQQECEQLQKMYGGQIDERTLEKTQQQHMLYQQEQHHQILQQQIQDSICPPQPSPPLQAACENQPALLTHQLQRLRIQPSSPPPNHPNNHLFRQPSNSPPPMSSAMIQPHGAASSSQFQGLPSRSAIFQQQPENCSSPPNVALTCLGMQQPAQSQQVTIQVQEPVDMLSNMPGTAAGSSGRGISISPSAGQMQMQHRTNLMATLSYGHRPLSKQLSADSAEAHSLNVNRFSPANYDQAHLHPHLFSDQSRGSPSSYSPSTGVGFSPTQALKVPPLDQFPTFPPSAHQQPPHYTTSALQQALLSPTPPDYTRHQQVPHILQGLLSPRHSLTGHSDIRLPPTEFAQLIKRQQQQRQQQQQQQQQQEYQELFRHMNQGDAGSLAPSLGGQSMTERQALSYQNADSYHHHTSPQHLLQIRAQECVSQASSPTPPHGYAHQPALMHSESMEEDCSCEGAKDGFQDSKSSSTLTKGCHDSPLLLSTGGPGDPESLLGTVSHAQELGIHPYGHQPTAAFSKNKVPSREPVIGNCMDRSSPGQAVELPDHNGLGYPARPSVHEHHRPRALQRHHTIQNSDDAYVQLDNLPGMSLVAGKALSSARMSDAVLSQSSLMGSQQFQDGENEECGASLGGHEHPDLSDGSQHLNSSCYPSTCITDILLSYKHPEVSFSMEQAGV
T14 sequence (P11362 22-822): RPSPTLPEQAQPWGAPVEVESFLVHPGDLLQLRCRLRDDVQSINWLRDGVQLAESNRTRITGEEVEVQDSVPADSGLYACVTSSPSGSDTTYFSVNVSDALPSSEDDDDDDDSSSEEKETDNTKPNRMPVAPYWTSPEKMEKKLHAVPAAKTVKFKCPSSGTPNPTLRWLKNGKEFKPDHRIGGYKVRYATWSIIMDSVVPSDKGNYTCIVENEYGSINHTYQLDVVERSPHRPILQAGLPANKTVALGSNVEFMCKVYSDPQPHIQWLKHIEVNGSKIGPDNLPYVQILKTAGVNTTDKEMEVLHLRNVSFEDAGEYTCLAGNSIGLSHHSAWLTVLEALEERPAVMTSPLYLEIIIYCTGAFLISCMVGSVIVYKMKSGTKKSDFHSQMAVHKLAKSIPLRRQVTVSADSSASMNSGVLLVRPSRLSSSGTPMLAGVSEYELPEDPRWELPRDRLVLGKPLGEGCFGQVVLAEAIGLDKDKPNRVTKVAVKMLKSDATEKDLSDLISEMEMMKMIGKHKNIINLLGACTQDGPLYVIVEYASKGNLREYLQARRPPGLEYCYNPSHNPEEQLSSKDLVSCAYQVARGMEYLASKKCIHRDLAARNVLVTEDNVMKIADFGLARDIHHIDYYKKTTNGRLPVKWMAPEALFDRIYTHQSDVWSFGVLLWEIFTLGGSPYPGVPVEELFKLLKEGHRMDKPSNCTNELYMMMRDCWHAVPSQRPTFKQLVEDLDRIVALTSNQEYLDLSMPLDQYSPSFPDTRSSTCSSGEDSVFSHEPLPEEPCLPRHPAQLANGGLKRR
T25 sequence (Q02156 whole entry): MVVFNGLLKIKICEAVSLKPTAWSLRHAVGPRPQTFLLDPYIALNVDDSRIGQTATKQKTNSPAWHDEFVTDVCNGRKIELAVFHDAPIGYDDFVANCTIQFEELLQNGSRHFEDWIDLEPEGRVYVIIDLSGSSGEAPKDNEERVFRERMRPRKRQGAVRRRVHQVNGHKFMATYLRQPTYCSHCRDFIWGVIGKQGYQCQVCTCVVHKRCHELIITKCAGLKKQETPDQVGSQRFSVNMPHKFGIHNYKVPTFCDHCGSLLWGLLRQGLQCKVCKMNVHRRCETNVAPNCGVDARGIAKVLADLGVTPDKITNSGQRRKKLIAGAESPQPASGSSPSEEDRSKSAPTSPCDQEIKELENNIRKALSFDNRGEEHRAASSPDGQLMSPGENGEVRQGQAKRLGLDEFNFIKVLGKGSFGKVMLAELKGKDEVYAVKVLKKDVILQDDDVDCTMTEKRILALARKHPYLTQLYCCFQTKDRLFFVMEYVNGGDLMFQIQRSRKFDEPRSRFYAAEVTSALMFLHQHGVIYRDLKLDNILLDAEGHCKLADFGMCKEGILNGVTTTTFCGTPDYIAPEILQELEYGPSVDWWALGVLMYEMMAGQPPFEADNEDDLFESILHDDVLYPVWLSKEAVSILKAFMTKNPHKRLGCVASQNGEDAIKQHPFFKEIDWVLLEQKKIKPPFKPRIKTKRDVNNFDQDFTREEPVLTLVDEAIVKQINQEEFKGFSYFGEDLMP
T18 sequence (O95835 whole entry): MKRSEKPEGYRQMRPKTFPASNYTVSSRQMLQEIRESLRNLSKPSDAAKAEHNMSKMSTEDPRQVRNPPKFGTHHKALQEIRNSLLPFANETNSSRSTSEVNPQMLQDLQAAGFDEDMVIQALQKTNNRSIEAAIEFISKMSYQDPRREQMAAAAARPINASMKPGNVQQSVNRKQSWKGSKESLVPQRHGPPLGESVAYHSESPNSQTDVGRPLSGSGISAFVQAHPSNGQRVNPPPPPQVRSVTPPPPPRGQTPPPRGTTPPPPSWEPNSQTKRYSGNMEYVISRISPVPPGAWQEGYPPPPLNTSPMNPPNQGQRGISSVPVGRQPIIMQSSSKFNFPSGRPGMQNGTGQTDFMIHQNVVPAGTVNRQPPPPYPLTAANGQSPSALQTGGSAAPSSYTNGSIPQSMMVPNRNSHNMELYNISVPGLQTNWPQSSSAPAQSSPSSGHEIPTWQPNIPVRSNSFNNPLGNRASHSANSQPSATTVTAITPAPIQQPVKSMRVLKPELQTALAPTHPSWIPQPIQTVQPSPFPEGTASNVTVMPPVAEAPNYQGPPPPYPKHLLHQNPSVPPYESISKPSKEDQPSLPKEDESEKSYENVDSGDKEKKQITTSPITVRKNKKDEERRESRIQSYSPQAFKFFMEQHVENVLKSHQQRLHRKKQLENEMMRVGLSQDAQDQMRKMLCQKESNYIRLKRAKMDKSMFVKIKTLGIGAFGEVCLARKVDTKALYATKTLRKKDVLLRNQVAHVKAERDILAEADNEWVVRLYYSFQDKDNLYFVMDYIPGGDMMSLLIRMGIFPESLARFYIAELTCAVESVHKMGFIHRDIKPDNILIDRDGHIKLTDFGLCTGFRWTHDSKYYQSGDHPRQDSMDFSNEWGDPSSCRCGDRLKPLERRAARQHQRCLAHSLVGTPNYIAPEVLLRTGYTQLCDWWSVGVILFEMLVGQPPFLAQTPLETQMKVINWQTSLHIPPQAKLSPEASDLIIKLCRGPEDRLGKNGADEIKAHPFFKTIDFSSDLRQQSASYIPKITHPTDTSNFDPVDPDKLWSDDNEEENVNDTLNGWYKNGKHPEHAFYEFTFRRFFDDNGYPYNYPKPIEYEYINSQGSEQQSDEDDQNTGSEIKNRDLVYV

remaining activity at 1 µM (MAP3K9): 111%
remaining activity at 1 µM (BRSK1): 106%
remaining activity at 1 µM (JAK3): 111%
remaining activity at 1 µM (PHKG1): 87.3%
remaining activity at 1 µM (MAP4K1): 101%
remaining activity at 1 µM (STK33): 94.8%
Tracer bound (CSNK1G2): 95.1%
Tracer bound (CDK2-CCNE1): 96.0%
remaining activity at 1 µM (TRKA): 28.6%
remaining activity at 1 µM (STK35): 59.6%
remaining activity at 1 µM (PAK4): 97.7%
Tracer bound (JAK2): 110.6%
Tracer bound (TYK2): 103.2%
remaining activity at 1 µM (FGFR1): 69.2%
remaining activity at 1 µM (ERN2): 120%
remaining activity at 1 µM (SNRK): 99.2%
remaining activity at 1 µM (EPHA6): 23.6%
remaining activity at 1 µM (LATS1): 106%
remaining activity at 1 µM (RET): 3.8%
remaining activity at 1 µM (TNK1): 114%
remaining activity at 1 µM (HUNK): 88.2%
remaining activity at 1 µM (STK36): 108%
Tracer bound (MAPK9): 94.9%
Tracer bound (SIK1): 110.5%
remaining activity at 1 µM (PRKCE-PMA): 76.2%
remaining activity at 1 µM (ULK2): 91.7%
remaining activity at 1 µM (AURKC): 102%
Tracer bound (SIK3): 113.2%
remaining activity at 1 µM (RPS6KA3): 118%
remaining activity at 1 µM (MYLK3): 119%
Structure (SMILES): CNC(=O)c1cc(Oc2ccc(NC(=O)Nc3cc(C(C)(C)C)on3)cc2)ccn1 [MA68, reference compound]
